Reference: ChEMBL document CHEMBL1140841, “Synthesis and biological evaluation of trimethyl-substituted cap analogs” (Bioorg Med Chem Lett, 2008)
The source made the active and inactive calls. The calls are words filed in the database; no cut-off is given here.

Assays:
Escherichia phage T7 = assay: Effect on Enterobacteria phage T7 RNA polymerase RNA transcription after 2 hrs
HeLa = assay: Translation efficiency in human HeLa cells assessed as luciferase activity; format: functional, cell-based
[1] = mRNA capping efficiency after 2 hrs by gel shift assay relative to control

Structure (SMILES) | Activity (Escherichia phage T7) | Activity (HeLa) | Activity [1]
CO[C@@H]1[C@H](O)[C@@H](n2c[n+](C)c3c(=O)[nH]c(N)nc32)O[C@H]1COP(=O)([O-])OP(=O)(O)OP(=O)(O)OC[C@H]1O[C@@H](n2cnc3c(=O)[nH]c(N)nc32)[C@H](O)[C@@H]1O | Active | Active | 52%
CO[C@@H]1[C@H](O)[C@@H](n2c[n+](C)c3c(=O)[nH]c(N)nc32)O[C@H]1COP(=O)([O-])OP(=O)(O)OP(=O)([O-])OC[C@H]1O[C@@H](n2c[n+](C)c3c(=O)[nH]c(N)nc32)[C@H](O)[C@@H]1O | Active | Active | 51%
C[n+]1cn([C@H]2O[C@@H](COP(=O)([O-])OP(=O)(O)OP(=O)(O)OC[C@H]3O[C@@H](n4cnc5c(=O)[nH]c(N)nc54)[C@H](O)[C@@H]3O)[C@H](O)[C@@H]2O)c2nc(N)[nH]c(=O)c21 | – | – | 61%
C[n+]1cn([C@@H]2O[C@H](COP(=O)(O)OP(=O)([O-])OP(=O)([O-])OC[C@@H]3O[C@H](n4c[n+](C)c5c(=O)[nH]c(N)nc54)[C@@H](O)[C@H]3O)[C@@H](O)[C@H]2O)c2nc(N)[nH]c(=O)c21 | Active | Active | 56%
